Experimental data taken from patent publication US20080318954A1, “Compounds” (Cyclacel Limited, priority 2004, published 2008).

How the values were obtained:
[1] = test system: glycogen synthase activity in HEK293 cells; experiment: Glycogen synthase (GS) assay in HEK293 cells; assay type: cell-based, human; conditions: HEK293 cells, 40 mM
Procedure: (§1) Cells on 10 cm dishes (Human Embryonic Kidney (HEK) 293 cells, L6 rat myocytes, or 3T3 mouse adipocytes) were treated with different concentrations of GSK3-inhibitors or DMSO vehicle for 90 min. Incubation medium was removed and cells were washed with ice-cold phosphate-buffered saline (PBS) prior to lysis on ice in 50 mM HEPES, pH 7.5, 10 mM EDTA, 100 mM NaF, 5 mM DTT, protease inhibitor cocktail (Sigma). After a freeze/thaw cycle the samples are sonicated for 10 sec and centrifuged at 15,000 g for 10 min at 4° C. Lysate supernatants were snap-frozen on liquid nitrogen and stored at −80° C. Lysates were assayed for glycogen synthase activity in buffer (50 mM Tris-HCl, pH 7.8, 20 mM EDTA, 25 mM NaF, 5 mM DTT, 1% glycogen, 0.3 mM UDP-glucose and 0.06 μCi of [^14C]-UDP-glucose in the presence of 0.1 or 10 mM glucose-6-phosphate. The reaction was carried out for 30 min at 30° C. 70 μL of the reaction mixture (total volume 90 μL) were transferred to a GFC 96-well filter plate (bottom sealed with foil), containing 140 μL 96% ethanol. The GFC plate was incubated for 1 h on ice and than washed with 66% ethanol. To each well 100 μL scintillant liquid was added and the radioactivity of the samples was measured using a scintillation counter (Topcount, HP). Data are expressed as -fold increase in glycogen synthase activity ratios over those of control samples.

[2] = test system: glycogen synthase activity in 3T3 mouse adipocytes; experiment: Glycogen synthase (GS) assay in 3T3 mouse adipocytes; assay type: cell-based; conditions: 3T3 cells, 40 mM
Procedure: Mouse pre-adipocytes 3T3-F442A were seeded at 9×10^5 cells per 10 cm dish in DMEM 10% FCS, containing penicillin/streptomycin. When 90% confluent, the same medium was supplemented with 1 μg/mL insulin. After 3-5 days (when most cells were differentiated) insulin was removed and 4 days later the cells were ready to use.
as §1

[3] = test system: β-catenin-LEF/TCF transcriptional activity in HEK293 cells; experiment: β-Catenin-LEF/TCF regulated reporter gene assay; assay type: cell-based, human; conditions: LiCl
Description: Furthermore, the effect of compound XIV on the β-catenin-dependent transcriptional activity, as measured in a luciferase based reporter gene assay, was studied.
HEK293 cells were transfected with either β-catenin-LEF/TCF-sensitive or β-catenin-LEF/TCF-insensitive reporter vector (Upstate Biotechnology, Inc.) using Lipofectamine Plus reagent (GibcoBRL) according to the manufacturer's instructions. The next day, cells were trypsinized, washed into serum-free medium, counted and seeded at 40,000 cells per well in a 96-well plate. Subsequent to cell attachment, LiCl or GSK-3 inhibitor compound were added to the medium to the required concentrations. Control cells were DMSO vehicle treated. 16 h after inhibitor addition, cells were analyzed for luciferase activity using the Steady-Glo Luciferase assay system (Promega) according to the manufacturer's instructions.

[Cl-].[Li+] [LiCl, reference compound]
Fold induction of GS activity [1]: 3.7 fold
Fold induction of GS activity [2]: 2 fold
β-catenin-dependent luciferase activity [3]: massive induction
